# Where two headings read alike, the source gives them in different places.
# Legend:
# [1] = biological target: HCV NS3/4A protease genotype 1b (Hepatitis C virus genotype 1b, UniProt P26663); experiment: HCV NS3/4A protease time-resolved fluorescence (TRF) assay, Ki against genotype 1b; format: biochemical
# Method in brief: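 Time-resolved fluorescence readout of NS3/4A cleavage of 25 nM europium-labelled peptide over 2.5 h at room temperature, enzyme levels set for signal/background 10–30 (0.2, 0.4, 0.025 nM for 1b, A156T, 3a). Ki by IC50=Ki(1+[S]/KM).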
# HCV genotype 1b replicon = experiment: HCV replicon assay, genotype 1b replicon EC50; format: cell-based, Hepatitis C virus; conditions: Hepatitis C virus, read-out: EC50 [gt-1b]
# Method in brief: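 Cells harbouring a stable replicon are grown under G418 selection, then plated with test compound in G418-free medium for 24-48 hours. After washing and lysis, RNA or luciferase signal is measured and expressed as percent of DMSO control to give EC50.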
# [2] = IC50 [gt-1b] (nM), NS3/4A genotype 1b, enzyme 0.2 nM
# [3] = IC50 [gt-1b], NS3/4A protease TRF assay, genotype 1b enzyme 0.2 nM
# [4] = IC50 [gt-1b] (nM), NS3/4A genotype 1b, enzyme 0.2 nM, K+ salt
SMILES,"IC50 [1, 2]",EC50 (HCV genotype 1b replicon; genotype 1b replicon),"IC50 [1, 3]","EC50 (HCV genotype 1b replicon; HCV replicon, genotype 1b)",other results
"Cc1nc2ccc(C(F)(F)F)cc2c2c1O[C@]1(CC2)C[C@H]2C(=O)N[C@]3(C(=O)NS(=O)(=O)C4(C)CC4)C[C@H]3/C=C\CCCCC[C@H](NC(=O)OC3CCCC3)C(=O)N2C1 [Example 252, cyclopentyl [(2R,6S,12Z,13aS,14aR,16aS)-5′-methyl-14a-{[(1-methylcyclopropyl)sulfonyl]carbamoyl}-5,16-dioxo-9′-(trifluoromethyl)-1,1′,2′,5,6,7,8,9,10,11,13a,14,14a,15,16,16a-hexadecahydrospiro[cyclopropa[e]pyrrolo[1,2-a][1,4]diazacyclopentadecine-2,3′-pyrano[2,3-c]quinolin]-6-yl]carbamate]",0.01 nM,44.4 nM,–,–,–
"COc1ccc2nc(C3CC3)c3c(c2c1)CC[C@]1(C[C@H]2C(=O)N[C@]4(C(=O)NS(=O)(=O)C5(C)CC5)C[C@H]4/C=C\CCCCC[C@H](NC(=O)OC(C)C)C(=O)N2C1)O3 [Example 94, propan-2-yl [(2R,6S,12Z,13aS,14aR,16aS)-5′-cyclopropyl-9′-methoxy-14a-{[(1-methylcyclopropyl)sulfonyl]carbamoyl}-5,16-dioxo-1,1′,2′,5,6,7,8,9,10,11,13a,14,14a,15,16,16a-hexadecahydrospiro[cyclopropa[e]pyrrolo[1,2-a][1,4]diazacyclopentadecine-2,3′-pyrano[2,3-c]quinolin]-6-yl]carbamate]",0.003 nM,0.61 nM,–,–,–
"Cc1nc2cc(F)ccc2c2c1OC1(CC2F)C[C@H]2C(=O)N[C@]3(C(=O)NS(=O)(=O)C4(C)CC4)C[C@H]3/C=C\CCCCC[C@H](NC(=O)OC(C)(C)C)C(=O)N2C1 (stereo partly drawn) [Example 464, tert-butyl [(6S,12Z,13aS,14aR,16aS)-1′,8′-difluoro-5′-methyl-14a-{[(1-methylcyclopropyl)sulfonyl]carbamoyl}-5,16-dioxo-1,1′,2′,5,6,7,8,9,10,11,13a,14,14a,15,16,16a-hexadecahydrospiro[cyclopropa[e]pyrrolo[1,2-a][1,4]diazacyclopentadecine-2,3′-pyrano[2,3-c]quinolin]-6-yl]carbamate]",–,–,1.03 nM,15 nM,–
"CC(C)COC(=O)N[C@H]1CCCCC/C=C\[C@@H]2C[C@@]2(C(=O)NS(=O)(=O)C2(C)CC2)NC(=O)[C@@H]2C[C@]3(CCc4c(c(C5CC5)nc5c(F)cccc45)O3)CN2C1=O [Example 151, 2-methylpropyl [(2R,6S,12Z,13aS,14aR,16aS)-5′-cyclopropyl-7′-fluoro-14a-{[(1-methylcyclopropyl)sulfonyl]carbamoyl}-5,16-dioxo-1,1′,2′,5,6,7,8,9,10,11,13a,14,14a,15,16,16a-hexadecahydrospiro[cyclopropa[e]pyrrolo[1,2-a][1,4]diazacyclopentadecine-2,3′-pyrano[2,3-c]quinolin]-6-yl]carbamate]",–,–,–,–,"IC50 [1, 4]: 0.014 nM; EC50 (HCV genotype 1b replicon; genotype 1b replicon, K+ salt): 1.77 nM"
"COc1ccc2nc(C3CC3)c3c(c2c1)C(F)(F)C[C@]1(C[C@H]2C(=O)N[C@]4(C(=O)NS(=O)(=O)C5(C)CC5)C[C@H]4/C=C\CCCCC[C@H](NC(=O)OCC(C)C)C(=O)N2C1)O3 [Example 248, 2-methylpropyl [(2S,6S,12Z,13aS,14aR,16aS)-5′-cyclopropyl-1′,1′-difluoro-9′-methoxy-14a-{[(1-methylcyclopropyl)sulfonyl]carbamoyl}-5,16-dioxo-1,1′,2′,5,6,7,8,9,10,11,13a,14,14a,15,16,16a-hexadecahydrospiro[cyclopropa[e]pyrrolo[1,2-a][1,4]diazacyclopentadecine-2,3′-pyrano[2,3-c]quinolin]-6-yl]carbamate]",–,–,–,–,"IC50 [1, 4]: 0.026 nM; EC50 (HCV genotype 1b replicon; genotype 1b replicon, K+ salt): 14.7 nM"
"Cc1nc2cc(Cl)ccc2c2c1O[C@]1(CC2)C[C@H]2C(=O)N[C@]3(C(=O)NS(=O)(=O)C4(C)CC4)C[C@H]3/C=C\CCCCC[C@H](NC(=O)OCC(C)C)C(=O)N2C1 [Example 234, 2-methylpropyl [(2R,6S,12Z,13aS,14aR,16aS)-8′-chloro-5′-methyl-14a-{[(1-methylcyclopropyl)sulfonyl]carbamoyl}-5,16-dioxo-1,1′,2′,5,6,7,8,9,10,11,13a,14,14a,15,16,16a-hexadecahydrospiro[cyclopropa[e]pyrrolo[1,2-a][1,4]diazacyclopentadecine-2,3′-pyrano[2,3-c]quinolin]-6-yl]carbamate]",–,–,–,–,"IC50 [1, 4]: 0.025 nM; EC50 (HCV genotype 1b replicon; genotype 1b replicon, K+ salt): 4.48 nM"
"COc1ccc2nc(C(C)C)c3c(c2c1)[C@H](F)C[C@]1(C[C@H]2C(=O)N[C@]4(C(=O)NS(=O)(=O)C5(C)CC5)C[C@H]4/C=C\CCCCC[C@H](NC(=O)OCC(C)(C)C)C(=O)N2C1)O3 [Example 388, 2,2-dimethylpropyl [(1′R,2S,6S,12Z,13aS,14aR,16aS)-1′-fluoro-9′-methoxy-14a-{[(1-methylcyclopropyl)sulfonyl]carbamoyl}-5,16-dioxo-5′-(propan-2-yl)-1,1′,2′,5,6,7,8,9,10,11,13a,14,14a,15,16,16a-hexadecahydrospiro[cyclopropa[e]pyrrolo[1,2-a][1,4]diazacyclopentadecine-2,3′-pyrano[2,3-c]quinolin]-6-yl]carbamate]",–,–,0.028 nM,1.31 nM,–
"CC1(S(=O)(=O)NC(=O)[C@@]23C[C@H]2/C=C\CCCCC[C@H](NC(=O)OC2CCCC2)C(=O)N2C[C@@]4(CCc5c(c(C6CC6)nc6ccccc56)O4)C[C@H]2C(=O)N3)CC1 [Example 104, cyclopentyl [(2R,6S,12Z,13aS,14aR,16aS)-5′-cyclopropyl-14a-{[(1-methylcyclopropyl)sulfonyl]carbamoyl}-5,16-dioxo-1,1′,2′,5,6,7,8,9,10,11,13a,14,14a,15,16,16a-hexadecahydrospiro[cyclopropa[e]pyrrolo[1,2-a][1,4]diazacyclopentadecine-2,3′-pyrano[2,3-c]quinolin]-6-yl]carbamate]",0.013 nM,1.39 nM,–,–,–
"Cc1nc2cc(Cl)ccc2c2c1O[C@]1(CC2)C[C@H]2C(=O)N[C@]3(C(=O)NS(=O)(=O)C4(C)CC4)C[C@H]3/C=C\CCCCC[C@H](NC(=O)OC3CCCC3)C(=O)N2C1 [Example 238, cyclopentyl [(2R,6S,12Z,13aS,14aR,16aS)-8′-chloro-5′-methyl-14a-{[(1-methylcyclopropyl)sulfonyl]carbamoyl}-5,16-dioxo-1,1′,2′,5,6,7,8,9,10,11,13a,14,14a,15,16,16a-hexadecahydrospiro[cyclopropa[e]pyrrolo[1,2-a][1,4]diazacyclopentadecine-2,3′-pyrano[2,3-c]quinolin]-6-yl]carbamate]",0.02 nM,7.72 nM,–,–,–
"Cc1nc2ccc(OC(F)(F)F)cc2c2c1O[C@]1(CC2)C[C@H]2C(=O)N[C@]3(C(=O)NS(=O)(=O)C4(C)CC4)C[C@H]3/C=C\CCCCC[C@H](NC(=O)OCC(C)C)C(=O)N2C1 [Example 124, 2-methylpropyl [(2R,6S,12Z,13aS,14aR,16aS)-5′-methyl-14a-{[(1-methylcyclopropyl)sulfonyl]carbamoyl}-5,16-dioxo-9′-(trifluoromethoxy)-1,1′,2′,5,6,7,8,9,10,11,13a,14,14a,15,16,16a-hexadecahydrospiro[cyclopropa[e]pyrrolo[1,2-a][1,4]diazacyclopentadecine-2,3′-pyrano[2,3-c]quinolin]-6-yl]carbamate]",0.016 nM,2.49 nM,–,–,–
"COCCOc1ccc2nc(C)c3c(c2c1)CC[C@]1(C[C@H]2C(=O)N[C@]4(C(=O)NS(=O)(=O)C5(C)CC5)C[C@H]4/C=C\CCCCC[C@H](NC(=O)OCC(C)C)C(=O)N2C1)O3 [Example 411, 2-methylpropyl [(2R,6S,12Z,13aS,14aR,16aS)-9′-(2-methoxyethoxy)-5′-methyl-14a-{[(1-methylcyclopropyl)sulfonyl]carbamoyl}-5,16-dioxo-1,1′,2′,5,6,7,8,9,10,11,13a,14,14a,15,16,16a-hexadecahydrospiro[cyclopropa[e]pyrrolo[1,2-a][1,4]diazacyclopentadecine-2,3′-pyrano[2,3-c]quinolin]-6-yl]carbamate]",–,–,0.064 nM,5.77 nM,–
"COCCOc1ccc2nc(C)c3c(c2c1)CC[C@]1(C[C@H]2C(=O)N[C@]4(C(=O)NS(=O)(=O)C5(C)CC5)C[C@H]4/C=C\CCCCC[C@H](NC(=O)OCC(C)(C)C)C(=O)N2C1)O3 [Example 410, 2,2-dimethylpropyl [(2R,6S,12Z,13aS,14aR,16aS)-9′-(2-methoxyethoxy)-5′-methyl-14a-{[(1-methylcyclopropyl)sulfonyl]carbamoyl}-5,16-dioxo-1,1′,2′,5,6,7,8,9,10,11,13a,14,14a,15,16,16a-hexadecahydrospiro[cyclopropa[e]pyrrolo[1,2-a][1,4]diazacyclopentadecine-2,3′-pyrano[2,3-c]quinolin]-6-yl]carbamate]",–,–,0.011 nM,3.1 nM,–
"Cc1nc2ccc(Cl)cc2c2c1O[C@]1(CC2)C[C@H]2C(=O)N[C@]3(C(=O)NS(=O)(=O)C4(C)CC4)C[C@H]3/C=C\CCCCC[C@H](NC(=O)OCC3CCCC3)C(=O)N2C1 [Example 231, cyclopentylmethyl [(2R,6S,12Z,13aS,14aR,16aS)-9′-chloro-5′-methyl-14a-{[(1-methylcyclopropyl)sulfonyl]carbamoyl}-5,16-dioxo-1,1′,2′,5,6,7,8,9,10,11,13a,14,14a,15,16,16a-hexadecahydrospiro[cyclopropa[e]pyrrolo[1,2-a][1,4]diazacyclopentadecine-2,3′-pyrano[2,3-c]quinolin]-6-yl]carbamate]",0.024 nM,4.77 nM,–,–,–
